Assays:
[1] = test system: subjects undergoing cataract extraction with lens replacement (CELR); experiment: Phase 2: subjects achieving analgesia response (NPRS < 4); assay type: in vivo, human; settings: Full Analysis Set; for Subjects achieving analgesia response (observed): Yes: NPRS < 4 at the available four intraoperative timepoints
Method: The number of subjects achieving analgesia response (observed) in the full analysis set was determined. Success in analgesia response was defined as NPRS<4 at the available at the available four intraoperative timepoints and a failure otherwise (e.g., any interoperative pain rescue was assumed to be a failure. Results are provided in TABLE 25. The number of subjects completing the surgery is provided in TABLE 26, and the number of subjects completing the surgery without interruption is provided in TABLE 27. For this measure, subjects completing the surgery without interruption (other than rescue medication) due to pain or anxiety were considered successes. The number of subjects requiring rescue sedative medication and those requiring analgesic medication are provided in TABLES 28 and 29, respectively. For all TABLES 25-29, p-Values between pairs of treatments were calculated and are provided.

[2] = test system: subjects undergoing cataract extraction with lens replacement (CELR); experiment: Phase 2: treatment-emergent ocular adverse events and serious adverse events; settings: for Cataract operation complication, % / Conjunctivitis bacterial, % / Corneal abrasion, % / Corneal oedema, % / Endophthalmitis, % / Eye disorders, % / Eye pain, % / Foreign body sensation in eyes, % / General disorders and administration site conditions, % / Infections and infestations, % / Injury, poisoning and procedural complications, % / Intraocular pressure increased, % / Investigations, % / Ocular hypertension, % / Pain, % / Paracentesis eye, % / Procedural pain, % / Subjects with Any Treatment-Emergent Ocular AEs, % / Vision blurred, %: Full Analysis Set; for Subjects who experienced a treatment-emergent ocular adverse event, study eye: overall, MELT-300, midazolam alone, ketamine alone
Method: The study eye (TABLE 32) non-study eye (TABLE 33), or either eye (TABLE 34) was assessed. TEAES were defined as events that started on or after the date of the study drug administration through the end of Visit 4 or early withdrawal. Subjects with one or more adverse event within a level of Medical Dictionary for Regulatory Activities (MedDRA) were counted only once in that level. […] TEAEs of special interest by system, organ class, and preferred term are provided in TABLE 35 for the full analysis set.

[3] = Non-Study Eye (as printed in Table 33)

CNC1(c2ccccc2Cl)CCCCC1=O (stereo not drawn) [Ketamine, 2-(2-chlorophenyl)-2-(methylamino)cyclohexanone]
(7.1) %: Subjects with Any Treatment-Emergent Ocular AEs, % ([2]; Study Eye)
(5.9) %: Eye disorders, % ([2]; Either Eye) | Eye disorders, % ([2]; Study Eye)
40 (50.6) n (%): Subjects achieving analgesia response (observed): No [1]
(1.2) %: Conjunctivitis bacterial, % ([2]; Either Eye) | Corneal oedema, % ([2]; Either Eye) | Endophthalmitis, % ([2]; Either Eye) | Intraocular pressure increased, % ([2]; Either Eye) | Investigations, % ([2]; Either Eye) | Ocular hypertension, % ([2]; Either Eye) | Conjunctivitis bacterial, % ([2]; Non-Study Eye) | Infections and infestations, % ([2]; Non-Study Eye) | Subjects with Any Treatment-Emergent Ocular AEs, % ([2]; Non-Study Eye) | Corneal oedema, % ([2]; Study Eye) | Endophthalmitis, % ([2]; Study Eye) | Infections and infestations, % ([2]; Study Eye) | Intraocular pressure increased, % ([2]; Study Eye) | Investigations, % ([2]; Study Eye) | Ocular hypertension, % ([2]; Study Eye)
(3.5) %: Eye pain, % ([2]; Either Eye) | Eye pain, % ([2]; Study Eye)
39 (49.4) n (%): Subjects achieving analgesia response (observed): Yes [1]
(2.4) %: Infections and infestations, % ([2]; Either Eye)
(0) %: Cataract operation complication, % ([2]; Either Eye) | Corneal abrasion, % ([2]; Either Eye) | Foreign body sensation in eyes, % ([2]; Either Eye) | General disorders and administration site conditions, % ([2]; Either Eye) | Injury, poisoning and procedural complications, % ([2]; Either Eye) | Pain, % ([2]; Either Eye) | Paracentesis eye, % ([2]; Either Eye) | Procedural pain, % ([2]; Either Eye) | Vision blurred, % ([2]; Either Eye) | Paracentesis eye, % [2, 3] | Eye disorders, % ([2]; Non-Study Eye) | Eye pain, % ([2]; Non-Study Eye) | Vision blurred, % ([2]; Non-Study Eye) | Cataract operation complication, % ([2]; Study Eye) | Corneal abrasion, % ([2]; Study Eye) | Foreign body sensation in eyes, % ([2]; Study Eye) | General disorders and administration site conditions, % ([2]; Study Eye) | Injury, poisoning and procedural complications, % ([2]; Study Eye) | Pain, % ([2]; Study Eye) | Procedural pain, % ([2]; Study Eye)
(8.2) %: Subjects with Any Treatment-Emergent Ocular AEs, % ([2]; Either Eye)
7.1%: Subjects who experienced a treatment-emergent ocular adverse event, study eye [2]

Cc1ncc2n1-c1ccc(Cl)cc1C(c1ccccc1F)=NC2 [Midazolam, 8-chloro-6-(2-fluorophenyl)-1-methyl-4H-imidazo[1,5-a][1,4]benzodiazepine]
(4.6) %: Eye disorders, % ([2]; Study Eye)
(2.3) %: Intraocular pressure increased, % ([2]; Either Eye) | Investigations, % ([2]; Either Eye) | Intraocular pressure increased, % ([2]; Study Eye) | Investigations, % ([2]; Study Eye)
33 (40.7) n (%): Subjects achieving analgesia response (observed): Yes [1]
(0) %: Cataract operation complication, % ([2]; Either Eye) | Conjunctivitis bacterial, % ([2]; Either Eye) | Corneal abrasion, % ([2]; Either Eye) | Corneal oedema, % ([2]; Either Eye) | Endophthalmitis, % ([2]; Either Eye) | Foreign body sensation in eyes, % ([2]; Either Eye) | General disorders and administration site conditions, % ([2]; Either Eye) | Infections and infestations, % ([2]; Either Eye) | Pain, % ([2]; Either Eye) | Paracentesis eye, % ([2]; Either Eye) | Paracentesis eye, % [2, 3] | Conjunctivitis bacterial, % ([2]; Non-Study Eye) | Eye pain, % ([2]; Non-Study Eye) | Infections and infestations, % ([2]; Non-Study Eye) | Cataract operation complication, % ([2]; Study Eye) | Corneal abrasion, % ([2]; Study Eye) | Corneal oedema, % ([2]; Study Eye) | Endophthalmitis, % ([2]; Study Eye) | Foreign body sensation in eyes, % ([2]; Study Eye) | General disorders and administration site conditions, % ([2]; Study Eye) | Infections and infestations, % ([2]; Study Eye) | Pain, % ([2]; Study Eye)
48 (59.3) n (%): Subjects achieving analgesia response (observed): No [1]
(9.2) %: Subjects with Any Treatment-Emergent Ocular AEs, % ([2]; Either Eye)
(8.0) %: Subjects with Any Treatment-Emergent Ocular AEs, % ([2]; Study Eye)
(1.1) %: Injury, poisoning and procedural complications, % ([2]; Either Eye) | Ocular hypertension, % ([2]; Either Eye) | Procedural pain, % ([2]; Either Eye) | Vision blurred, % ([2]; Either Eye) | Eye disorders, % ([2]; Non-Study Eye) | Subjects with Any Treatment-Emergent Ocular AEs, % ([2]; Non-Study Eye) | Vision blurred, % ([2]; Non-Study Eye) | Injury, poisoning and procedural complications, % ([2]; Study Eye) | Ocular hypertension, % ([2]; Study Eye) | Procedural pain, % ([2]; Study Eye)
(3.4) %: Eye pain, % ([2]; Either Eye) | Eye pain, % ([2]; Study Eye)
8.0%: Subjects who experienced a treatment-emergent ocular adverse event, study eye [2]
(5.7) %: Eye disorders, % ([2]; Either Eye)

— US20250381198A1 (Melt Pharmaceuticals, Inc., priority 2024, published 2025)
